According to article PMC2700083, “A covalent peptide inhibitor of RGS4 identified in a focused one-bead, one compound library screen” (BMC Pharmacology, 2009):
In brackets after ≈: the same amount, converted by molar mass. Marks after values point to notes of the source that are not given here. *1 amine or outer side, *2 acyl side, *3 side chain or, on linkers, in order; H or OH if unused. Where a SMILES comes first, the peptide text is derived from it. Bridges are numbered along the chain shown (N, C = ends). CH2 = C([*:1])[*:2]

Tests used:
RGS8 [1] = molecular target: T1, RGS8 (Homo sapiens, UniProt P57771); design: method as in earlier work; conditions: David Roman, in preparation; cited from earlier work
T1 construct: RGS8 full length; made in house
T1 sequence (P57771 1-180): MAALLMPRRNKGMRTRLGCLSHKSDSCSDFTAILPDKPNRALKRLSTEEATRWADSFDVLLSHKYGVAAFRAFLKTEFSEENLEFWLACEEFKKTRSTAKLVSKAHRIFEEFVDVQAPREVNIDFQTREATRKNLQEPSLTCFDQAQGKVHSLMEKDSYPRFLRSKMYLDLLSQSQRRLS

RGS4 [2] = molecular target: T2, RGS4 (Rattus norvegicus, UniProt P49799); assay: FCPIA (flow cytometry protein interaction assay), RGS4-Gαo interaction, wild type RGS4 (MBP-RGS4Δ51N); type: binding
T2 construct: made in house
T2 sequence (P49799 52-205 limits assumed): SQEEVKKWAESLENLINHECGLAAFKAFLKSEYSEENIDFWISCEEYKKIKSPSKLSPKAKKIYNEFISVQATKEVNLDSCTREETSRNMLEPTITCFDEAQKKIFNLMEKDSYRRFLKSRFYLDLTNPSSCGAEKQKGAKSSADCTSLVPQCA
Experimental: (§1) We recently described a bead-based screen in which 2.5 × 10^6 different peptide sequences were prepared as a OBOC library. Fluorescently labeled RGS4 was used to probe the library for peptides that bind RGS4 [5]. […] Since the majority of those hit peptides could bind tightly to the RGS without disrupting GAP activity, they were also tested in the flow cytometry protein interaction assay (FCPIA) (Figure 1), which measures the interaction between RGS4 and Gαo. In this method we used a Luminex flow cytometer to detect the binding of Alexa Fluor 532-labeled Gαo to biotinylated RGS4 on avidin beads in the presence of AMF (AlCl3, MgCl2, NaF and GDP) to put the Gα subunit into a transition state-like conformation. Peptides were tested at 50 μM except where limited by solubility (Table 1).
Figure 1 Hit peptides in the FCPIA. Hit peptides from Roof, et al. 2008 were tested at 50 μM unless otherwise indicated for ability to disrupt the RGS4-Gαo interaction as described using 25 nM Gα o-Alexa Fluor-532 and 5 nM wild type RGS4-biotin (mean ± S.E.M., n ≥ 3) *p < 0.05, **p < 0.01, ***p < 0.001 compared to no peptide.
(§2) Proteins were expressed, purified and labeled as described previously. The mutagenesis was done using the "QuickChange Multi Site-Directed Mutagenesis Kit" from Stratagene according to the manufacturer's protocol. The construct of RGS4 used in these studies is a maltose binding protein (MBP-) fusion protein of the RGS4 sequence from which the amphipathic N-terminal helix has been removed (i.e. MBP-RGS4Δ51N). For simplicity in the text, this will be referred to as RGS4. All other RGS proteins were human sequences and were used as Mpb fusions: RGS7 RGS domain (aa: 305–453), RGS8 full length, RGS16 full length, and RGS19ΔC11 (amino acids 1–209). To cleave RGS4Δ51N from the MBP-His6 construct for MS analysis, MBP-His6-RGS4Δ51N was treated with 15% MBP-His6-TEV protease S219V [11] for 22 hours at 4°C and purified over a Ni-NTA column.
FCPIA was performed as previously published.

[3] = Solubility in buffer by HPLC; type: physicochemical; conditions: in buffer, determined by HPLC; for solubility: read-out: Buffer Solubility
Experimental: Soluble peptides were synthesized on Rink resin, cleaved and cyclized as described previously. Peptide purity (at least 95%) and solubility were verified by high-performance liquid chromatography and correct mass was verified by MS analysis. ALogP calculations are from. Peptides were prepared as 5 mM stocks in DMSO.

RGS8 [4] = molecular target: T1, RGS8; assay: FCPIA, Gαo binding to RGS8; conditions: no wash, read-out: percent inhibition, RGS8
Experimental: as §1
5nd inhibited Gαo binding to a number of different RGS proteins (Figure 2). […] RGS19 and RGS7 are in the RZ and R7 families, respectively and show less inhibition by 5nd. Linear as well as bridged versions of peptide 5 were tested in the FCPIA since cyclization yields would most likely have been less then 100% in the synthesis of the library leaving some linear peptides present on each bead. […] This may be due to lack of structural rigidity necessary for the correct interaction of the peptide with the RGS protein or a role for chemical reactivity of the disulfide.
Figure 2 Characterization of hit 5. A) and B) Dose response curves for 5nd in the FCPIA with different RGS proteins (RGS Family), (mean ± S.E.M., n = 3) *p < 0.05, **p < 0.01, ***p < 0.001 compared to RGS4 at the same 5nd concentration. C) Peptides were tested at 50 μM as in Figure 1, (mean ± S.E.M., n ≥ 3) *p < 0.05, **p < 0.01, ***p < 0.001 compared to no peptide.
Figure 3 Irreversibility experiments. RGS-biotin on avidin beads was treated with 5nd (100 μM) or 5nm (100 μM) and then washed in buffer (with or without 1 mM DTT) or not washed and put in the FCPIA using RGS4 (A) or RGS8 (B) (mean ± S.E.M., n ≥ 2) *p < 0.05, **p < 0.01, ***p < 0.001 compared to no peptide (100%); #p < 0.05, ##p < 0.01, ###p < 0.001 compared to 5nd no wash.
as §2, with “To cleave RGS4Δ51N from the MBP-His6 construct for MS analysis, MBP-His6-RGS4Δ51N was treated with 15% MBP-His6-TEV protease S219V [11] for 22 hours at 4°C and purified over a Ni-NTA column.” left out

RGS4 [5] = molecular target: T2, RGS4; assay: FCPIA (flow cytometry protein interaction assay), RGS4-Gαo interaction, wild type RGS4 (MBP-RGS4Δ51N); type: binding; conditions: peptide 100 μM
[6] = peptide 50 μM, 25 nM Gαo-Alexa Fluor-532, 5 nM RGS4-biotin

COS(=NS(=O)(=O)c1ccc(Cl)cc1)c1ccc([N+](=O)[O-])cc1 (stereo not drawn) [CCG-4986, methyl N-[(4-chlorophenyl)sulfonyl]-4-nitrobenzenesulfinimidoate]
activity against RGS8 (RGS8 [1]): no activity

CC(=O)N[C@@H](Cc1ccc(O)cc1)C(=O)N[C@@H](CC(N)=O)C(=O)N[C@H]1CSSC[C@@H](C(=O)N[C@@H](CCCCN)C(N)=O)NC(=O)[C@H](CCC(=O)O)NC(=O)CNC(=O)[C@H](CCC(N)=O)NC1=O [Peptide 1ad, Ac-YNCQGECK-NH2] (Ac-YNCQGECK-NH2; disulfide 3-7)
% Inhibition of RGS4-Gαo (RGS4 [2]; [6]): 14 ± 6%
solubility [3]: 123 µM (≈ 121 µg/mL)

NCCCC[C@H](NC(=O)[C@@H]1CSSC[C@H](NC(=O)[C@H](CC(N)=O)NC(=O)[C@@H](N)Cc2ccc(O)cc2)C(=O)N[C@@H](CCC(N)=O)C(=O)NCC(=O)N[C@@H](CCC(=O)O)C(=O)N1)C(N)=O [Peptide 1nd, YNCQGECK-NH2] (H-YNCQGECK-NH2; disulfide 3-7)
% Inhibition of RGS4-Gαo (RGS4 [2]; [6]): 2 ± 4%
solubility [3]: ≥ 420 µM

CC(=O)NCC(=O)N[C@H](C(=O)N[C@H]1CSSC[C@@H](C(=O)N[C@@H](Cc2c[nH]c3ccccc23)C(N)=O)NC(=O)[C@H]([C@@H](C)O)NC(=O)CNC(=O)[C@H](Cc2ccccc2)NC1=O)[C@@H](C)O [Peptide 2ad, Ac-GTCFGTCW-NH2] (Ac-GTCFGTCW-NH2; disulfide 3-7)
% Inhibition of RGS4-Gαo (RGS4 [2]; peptide 10 μM): 10 ± 4 (10 μM) %
solubility [3]: 30 µM (≈ 27.4 µg/mL)

C[C@@H](O)[C@@H]1NC(=O)CNC(=O)[C@H](Cc2ccccc2)NC(=O)[C@@H](NC(=O)[C@@H](NC(=O)CN)[C@@H](C)O)CSSC[C@@H](C(=O)N[C@@H](Cc2c[nH]c3ccccc23)C(N)=O)NC1=O [Peptide 2nd, GTCFGTCW-NH2] (H-GTCFGTCW-NH2; disulfide 3-7)
% Inhibition of RGS4-Gαo (RGS4 [2]; [6]): 19 ± 3** %
solubility [3]: 464 µM (≈ 404 µg/mL)

CC(=O)N[C@@H](CC(C)C)C(=O)N[C@H](C(=O)N[C@H]1CSSC[C@@H](C(=O)N[C@@H](CCC(N)=O)C(N)=O)NC(=O)[C@H](Cc2ccc(O)cc2)NC(=O)CNC(=O)[C@H](CCCCN)NC1=O)C(C)C [Peptide 3ad, Ac-LVCKGYCQ-NH2] (Ac-LVCKGYCQ-NH2; disulfide 3-7)
% Inhibition of RGS4-Gαo (RGS4 [2]; [6]): 10 ± 3%
solubility [3]: 427 µM (≈ 407 µg/mL)

CC(C)C[C@H](N)C(=O)N[C@H](C(=O)N[C@H]1CSSC[C@@H](C(=O)N[C@@H](CCC(N)=O)C(N)=O)NC(=O)[C@H](Cc2ccc(O)cc2)NC(=O)CNC(=O)[C@H](CCCCN)NC1=O)C(C)C [Peptide 3nd, LVCKGYCQ-NH2] (H-LVCKGYCQ-NH2; disulfide 3-7)
% Inhibition of RGS4-Gαo (RGS4 [2]; [6]): 12 ± 2%
solubility [3]: ≥ 470 µM

CSCC[C@@H]1NC(=O)[C@@H](NC(=O)[C@@H](NC(=O)[C@H](CCCCN)NC(C)=O)C(C)C)CSSC[C@@H](C(=O)N[C@H](C(N)=O)[C@@H](C)O)NC(=O)CNC(=O)CNC1=O [Peptide 4ad, Ac-KVCMGGCT-NH2] (Ac-KVCMGGCT-NH2; disulfide 3-7)
% Inhibition of RGS4-Gαo (RGS4 [2]; [6]): 9 ± 6%
solubility [3]: 459 µM (≈ 384 µg/mL)

CSCC[C@@H]1NC(=O)[C@@H](NC(=O)[C@@H](NC(=O)[C@@H](N)CCCCN)C(C)C)CSSC[C@@H](C(=O)N[C@H](C(N)=O)[C@@H](C)O)NC(=O)CNC(=O)CNC1=O [Peptide 4nd, KVCMGGCT-NH2] (H-KVCMGGCT-NH2; disulfide 3-7)
% Inhibition of RGS4-Gαo (RGS4 [2]; [6]): 4 ± 3%
solubility [3]: ≥ 470 µM

CC(=O)N[C@@H](Cc1ccc(O)cc1)C(=O)N[C@@H](Cc1c[nH]c2ccccc12)C(=O)N[C@H]1CSSC[C@@H](C(=O)N[C@@H](CCCCN)C(N)=O)NC(=O)[C@H](CC(C)C)NC(=O)CNC(=O)[C@H](CCCCN)NC1=O [Peptide 5ad, Ac-YWCKGLCK-NH2] (Ac-YWCKGLCK-NH2; disulfide 3-7)
% Inhibition of RGS4-Gαo (RGS4 [2]; [6]): 37 ± 3*** %
solubility [3]: 464 µM (≈ 482 µg/mL)

CC(=O)N[C@@H](Cc1ccc(O)cc1)C(=O)N[C@@H](Cc1c[nH]c2ccccc12)C(=O)N[C@@H](CS)C(=O)N[C@@H](CCCCN)C(=O)NCC(=O)N[C@@H](CC(C)C)C(=O)N[C@@H](CS)C(=O)N[C@@H](CCCCN)C(N)=O [Peptide 5al, Ac-YWCKGLCK-NH2] (Ac-YWCKGLCK-NH2)
solubility [3]: 460 µM (≈ 479 µg/mL)

CC(C)C[C@H](NC(=O)CNC(=O)[C@H](CCCCN)NC(=O)[C@H](CS)NC(=O)[C@H](Cc1c[nH]c2ccccc12)NC(=O)[C@@H](N)Cc1ccc(O)cc1)C(=O)N[C@@H](CS)C(=O)N[C@@H](CCCCN)C(N)=O [Peptide 5nl, YWCKGLCK-NH2] (H-YWCKGLCK-NH2)
solubility [3]: 465 µM (≈ 465 µg/mL)

CC(C)C[C@@H]1NC(=O)CNC(=O)[C@H](CCCCN)NC(=O)[C@@H](NC(=O)[C@H](Cc2c[nH]c3ccccc23)NC(=O)[C@@H](N)Cc2ccc(O)cc2)CSCSC[C@@H](C(=O)N[C@@H](CCCCN)C(N)=O)NC1=O [Peptide 5nm, YWCKGLCK-NH2] (H-YWCKGLCK-NH2; linker 3-7 via CH2)
inhibition at 100 µM (RGS8 [4]): 18 ± 1%
solubility [3]: ≥ 470 µM
% Inhibition of RGS4-Gαo (RGS4 [5]): 3 ± 0.1 (100 μM) %

CC(=O)N[C@@H](CCCCN)C(=O)N[C@@H](Cc1c[nH]cn1)C(=O)N[C@H]1CSSC[C@@H](C(=O)N[C@@H](Cc2ccc(O)cc2)C(N)=O)NC(=O)[C@H](Cc2ccccc2)NC(=O)CNC(=O)[C@H](Cc2ccc(O)cc2)NC1=O [Peptide 6ad, Ac-KHCYGFCY-NH2] (Ac-KHCYGFCY-NH2; disulfide 3-7)
% Inhibition of RGS4-Gαo (RGS4 [2]; [6]): 27 ± 4*** %
solubility [3]: 421 µM (≈ 446 µg/mL)

NCCCC[C@H](N)C(=O)N[C@@H](Cc1c[nH]cn1)C(=O)N[C@H]1CSSC[C@@H](C(=O)N[C@@H](Cc2ccc(O)cc2)C(N)=O)NC(=O)[C@H](Cc2ccccc2)NC(=O)CNC(=O)[C@H](Cc2ccc(O)cc2)NC1=O [Peptide 6nd, KHCYGFCY-NH2] (H-KHCYGFCY-NH2; disulfide 3-7)
% Inhibition of RGS4-Gαo (RGS4 [2]; peptide 25 μM): 23 ± 15 (25 μM) * %
Buffer Solubility [3]: Low

CC[C@H](C)[C@@H]1NC(=O)CNC(=O)[C@H]([C@@H](C)O)NC(=O)[C@@H](NC(=O)[C@H](CCCCN)NC(=O)[C@@H](NC(C)=O)C(C)C)CSSC[C@@H](C(=O)N[C@@H](CCC(=O)O)C(N)=O)NC1=O [YJ34, Ac-Val-Lys-c [Cys-Thr-Gly-Ile-Cys]-Glu-NH2, S-S, reference compound] (Ac-VKCTGICE-NH2; disulfide 3-7)
% Inhibition of RGS4-Gαo (RGS4 [2]; peptide 40 μM): -17 ± 4 (40 μM) %
solubility [3]: 80 µM (≈ 71.3 µg/mL)
